According to patent US9120779B2, “Inhibitors of HCV NS5A” (PRESIDIO PHARMACEUTICALS, INC., priority 2008, dated 2015):
pEC50: −log10 of the molar value.

Each compound was assayed on HCV genotype 1b replicon in Huh 7 cells (assay: HCV replicon assay (luciferase readout, 1b_Huh-Luc/Neo-ET cell line)). Settings: Hepatitis C virus, Huh-7, 72 h, read-out: Inhibition of HCV genotype 1b, Table 1, 72 h incubation.
Assay type: cell-based
Protocol: Biological activity of the compounds of the invention was determined using an HCV replicon assay. The 1b_Huh-Luc/Neo-ET cell line persistently expressing a bicistronic genotype 1b replicon in Huh 7 cells was obtained from R^eBLikon GMBH. This cell line was used to test compound inhibition using luciferase enzyme activity readout as a measurement of compound inhibition of replicon levels.
On Day 1 (the day after plating), each compound is added in triplicate to the cells. Plates incubated for 72 h prior to running the luciferase assay. Enzyme activity was measured using a Bright-Glo Kit (cat. number E2620) manufactured by Promega Corporation. The following equation was used to generate a percent control value for each compound. % Control=(Average Compound Value/Average Control)*100
The EC50 value was determined using GraphPad Prism and the following equation: Y=Bottom+(Top−Bottom)/(1+10^((Log IC50−X)*HillSlope))
EC50 values of compounds are repeated several times in the replicon assay.
Example compounds of the disclosed invention are illustrated in Tables 1-9 attached as appendices. The tables show inhibitory activity of many of the example compounds with respect to HCV 1b. […] The tables further provide mass spectrometry results for the synthesized example compounds.
Work on `CC(C)(C)OC(=O)N[C@@H](C(=O)N1CCC[C@H]1C(=O)N[C@H]1CC[C@H](c2cccc(-c3cnc([C@@H]4CCCN4C(=O)[C@H](NC(=O)OC(C)(C)C)c4ccccc4)[nH]3)c2)CC1)c1ccccc1` [compound 362] yielded a pEC50 of 8.00 to 9.00.
In the case of `CNC(=O)N[C@H](C(=O)N1CCC[C@H]1c1ncc(-c2ccc([C@H]3CC[C@H](c4cnc([C@@H]5CCCN5C(=O)[C@H](NC(=O)OC)c5ccccc5)[nH]4)CC3)cc2)[nH]1)C(C)C` [compound 2004], the pEC50 was over 9.00.
In the case of `O=C(N[C@H]1CC[C@H](c2cccc(-c3cnc([C@@H]4CCCN4C(=O)[C@H](NC(=O)N4CCOCC4)c4ccccc4)[nH]3)c2)CC1)[C@@H]1CCCN1C(=O)[C@H](NC(=O)N1CCOCC1)c1ccccc1` [compound 364], the pEC50 was 8.00 to 9.00.
With `COC(=O)N[C@H](C(=O)N1CCC[C@H]1c1ncc(-c2ccc([C@H]3CC[C@](C)(c4cnc([C@@H]5CCCN5C(=O)[C@@H](NC(=O)OC)C(C)C)[nH]4)CC3)cc2)[nH]1)C(C)C` [compound 2005] the pEC50 was over 9.00.
In the case of `COC(=O)N[C@@H](C)C(=O)N1CCC[C@H]1c1ncc(-c2ccc([C@H]3CC[C@H](c4cnc([C@@H]5CCCN5C(=O)[C@H](C)NC(=O)OC)[nH]4)CC3)cc2)[nH]1` [compound 387], the pEC50 was over 9.00.
With `COC(=O)N[C@H](C(=O)N1CCC[C@H]1c1ncc(-c2ccc([C@H]3CC[C@H](c4cnc([C@@H]5CCCN5C(=O)[C@H](NC(=O)OC)c5ccccc5)[nH]4)CC3)cc2)[nH]1)C(C)C` [compound 2001] the pEC50 was over 9.00.
For `CC[C@H](C)[C@H](NC(=O)OC)C(=O)N1CCC[C@H]1c1ncc(-c2ccc([C@H]3CC[C@H](c4cnc([C@@H]5CCCN5C(=O)[C@@H](NC(=O)OC)[C@@H](C)CC)[nH]4)CC3)cc2)[nH]1` [compound 943], the pEC50 was over 9.00.

Same assay, conditions: Hepatitis C virus, Huh-7, 72 h, read-out: Inhibition of HCV genotype 1b, Table 2, 72 h incubation
Work on `COC(=O)N[C@@H](C(=O)N1CCC[C@H]1c1ncc(-c2ccc(-c3ccc4nc([C@@H]5CCCN5C(=O)[C@H](NC(=O)OC)C(C)C)[nH]c4c3)cc2)[nH]1)C(C)C` [compound 404] yielded a pEC50 of 8.00 to 9.00.

Same assay, conditions: Hepatitis C virus, Huh-7, 72 h, read-out: Inhibition of HCV genotype 1b, Table 3, 72 h incubation
`O=C(N[C@@H](C(=O)N1CCOC[C@H]1c1ncc(-c2cc(F)c(N3CCC(c4cnc([C@@H]5CCCN5C(=O)[C@H](NC(=O)C5CC5)c5ccccc5)[nH]4)CC3)c(F)c2)[nH]1)c1ccccc1)C1CC1` [compound 510] showed a pEC50 of over 9.00.
For `O=C(NC1CCN(c2ccc(-c3cnc([C@@H]4CCCN4C(=O)[C@H](NC(=O)N4CCOCC4)c4ccccc4)[nH]3)cc2F)CC1)[C@@H]1CCCN1C(=O)[C@H](NC(=O)N1CCOCC1)c1ccccc1` [compound 455], the pEC50 was 8.00 to 9.00.
`COC(=O)N[C@@H](C(=O)N1CCC[C@H]1c1ncc(-c2cc(F)c(N3CCC(c4cnc([C@@H]5CCCN5C(=O)[C@H](NS(C)(=O)=O)c5ccccc5)[nH]4)CC3)c(F)c2)[nH]1)c1ccccc1` [compound 474] gave a pEC50 of over 9.00.
`C[C@@H](c1ncc(C2CCN(c3c(F)cc(-c4cnc([C@@H]5CCCN5C(=O)[C@H](NC(=O)C5CC5)c5ccccc5)[nH]4)cc3F)CC2)[nH]1)N(C)C(=O)[C@H](NC(=O)C1CC1)c1ccccc1` [compound 511] showed a pEC50 of over 9.00.
Compound `COC(=O)N[C@@H](C(=O)N1CCC[C@H]1c1ncc(-c2cc(F)c(N3CCC(c4cnc([C@@H]5CCCCN5C(=O)[C@H](NC(=O)OC)c5ccccc5)[nH]4)CC3)c(F)c2)[nH]1)c1ccccc1` [compound 487] has a pEC50 of over 9.00.
Compound `C[C@H](NC(=O)[C@H](NC(=O)C1CC1)c1ccccc1)c1ncc(C2CCN(c3c(F)cc(-c4cnc([C@@H]5CCCN5C(=O)[C@H](NC(=O)C5CC5)c5ccccc5)[nH]4)cc3F)CC2)[nH]1` [compound 514] has a pEC50 of over 9.00.
`COC(=O)N[C@H](C(=O)N[C@@H](C)c1ncc(C2CCN(c3c(F)cc(-c4cnc([C@@H]5CCCN5C(=O)[C@@H](NC(=O)OC)C(C)C)[nH]4)cc3F)CC2)[nH]1)C(C)C` [compound 512] gave a pEC50 of over 9.00.
For `COC(=O)N[C@H](C(=O)N(C)[C@@H](C)c1ncc(C2CCN(c3c(F)cc(-c4cnc([C@@H]5CCCN5C(=O)[C@@H](NC(=O)OC)C(C)C)[nH]4)cc3F)CC2)[nH]1)C(C)C` [compound 505], the pEC50 was over 9.00.
`COC(=O)N[C@@H](C(=O)N1CCC[C@H]1c1ncc(-c2cc(F)c(N3CCC(c4cnc([C@@H]5CCCN5C(=O)[C@@H](c5ccccc5)N5CCCCC5)[nH]4)CC3)c(F)c2)[nH]1)c1ccccc1` [compound 469] showed a pEC50 of over 9.00.
In the case of `COC(=O)N[C@@H](C(=O)N1CCC[C@H]1c1ncc(-c2cc(F)c(N3CCC(c4cnc([C@@H]5CCCN5C(=O)[C@H](NC(=O)N5CCCCC5)c5ccccc5)[nH]4)CC3)c(F)c2)[nH]1)c1ccccc1` [compound 488], the pEC50 was over 9.00.
With `COC(=O)N[C@@H](C(=O)N1CCC[C@H]1c1ncc(-c2ccc(N3CCC(c4cnc([C@@H]5CCCN5C(=O)[C@H](NC(=O)OC)c5ccccc5)[nH]4)CC3)c(F)c2)[nH]1)c1ccccc1` [compound 452] the pEC50 was over 9.00.

Same assay, conditions: Hepatitis C virus, Huh-7, 72 h, read-out: Inhibition of HCV genotype 1b, Table 4, 72 h incubation
For `COC(=O)N[C@H](C(=O)N1CCC[C@H]1c1nc2ccc(-c3ccc(-c4ccc5nc([C@H](C)NC(=O)[C@@H](c6ccccc6)N(C)C)[nH]c5c4)cc3)cc2[nH]1)C(C)C` [compound 939], the pEC50 was over 9.00.

Same assay, conditions: Hepatitis C virus, Huh-7, 72 h, read-out: Inhibition of HCV genotype 1b, Table 5, 72 h incubation
`CC(C)[C@H](C(=O)N1CCC[C@H]1c1ncc(-c2ccc(C34CCC(c5cnc([C@@H]6CCCN6C(=O)[C@@H](C(C)C)N(C)C)[nH]5)(CC3)CC4)cc2)[nH]1)N(C)C` [compound 920] gave a pEC50 of 6.00 to 8.00.
With `COC(=O)N[C@H](C(=O)N[C@@H](C)c1ncc(-c2ccc(C34CCC(c5cnc([C@@H]6CCCN6C(=O)[C@@H](NC(=O)OC)C(C)C)[nH]5)(CC3)CC4)cc2)[nH]1)C(C)C` [compound 2074] the pEC50 was over 9.00.
Work on `CC(C)[C@H](NC(=O)N1CCOCC1)C(=O)N1CCC[C@H]1c1ncc(-c2ccc(C34CCC(c5cnc([C@@H]6CCCN6C(=O)[C@@H](NC(=O)N6CCOCC6)C(C)C)[nH]5)(CC3)CC4)cc2)[nH]1` [compound 628] yielded a pEC50 of under 6.00.
With `COC(=O)N[C@@H](C(=O)N1CCC[C@H]1c1ncc(-c2ccc(C34CCC(c5cnc([C@@H]6CCCN6C(=O)[C@H](NC(=O)OC)c6ccccc6)[nH]5)(CC3)CC4)cc2)[nH]1)c1ccccc1` [compound 606] the pEC50 was over 9.00.
In the case of `CC[C@H](C)[C@H](NC(=O)OC)C(=O)N1CCC[C@H]1c1ncc(-c2ccc(C34CCC(c5cnc([C@@H]6CCCN6C(=O)[C@@H](NC(=O)OC)C(C)C)[nH]5)(CC3)CC4)cc2)[nH]1` [compound 2073], the pEC50 was over 9.00.
`COC(=O)N[C@H](C(=O)N1CCC[C@H]1c1ncc(C23CCC(c4ccc(-c5cnc([C@@H]6CCCN6C(=O)[C@H](NC(=O)OC6CCOCC6)C(C)C)[nH]5)cc4)(CC2)CC3)[nH]1)C(C)C` [compound 2080] gave a pEC50 of over 9.00.
For `COC(=O)N[C@H](C(=O)N1CCC[C@H]1c1ncc(-c2ccc(C34CCC(c5cnc([C@@H]6CCCN6C(=O)[C@@H](NC(=O)OC)C(C)C)[nH]5)(CC3)CC4)cc2)[nH]1)C(C)C` [compound 627], the pEC50 was over 9.00.
For `COC(=O)N[C@H](C(=O)N1CCC[C@H]1c1ncc(C23CCC(c4ccc(-c5cnc([C@@H]6CCCN6C(=O)[C@H](NC6CCOCC6)C(C)C)[nH]5)cc4)(CC2)CC3)[nH]1)C(C)C` [compound 915], the pEC50 was over 9.00.
For `COC(=O)N[C@H](C(=O)N1CCC[C@H]1c1ncc(C23CCC(c4ccc(-c5cnc([C@@H]6CCCN6C(=O)[C@@H](NC(=O)N6CCC(=O)CC6)C(C)C)[nH]5)cc4)(CC2)CC3)[nH]1)C(C)C` [compound 650], the pEC50 was 8.00 to 9.00.

Same assay, conditions: Hepatitis C virus, Huh-7, 72 h, read-out: Inhibition of HCV genotype 1b, Table 9, 72 h incubation
With `COC(=O)N[C@@H](C(=O)N1CCC[C@H]1c1nc(-c2ccc(/C=C/c3ccc(-c4cnc([C@@H]5CCCN5C(=O)[C@H](NC(=O)OC)c5ccccc5)[nH]4)cc3)cc2)c[nH]1)c1ccccc1` [Compound 2120] the pEC50 was over 9.00.
